Measurements reported in ChEMBL document CHEMBL3046956, “Photosynthetic Electron Transport Inhibitory Activity of 2-Aralkylamino-4-methyl-6-trifluoromethyl-1, 3, 5-triazine Derivatives” (J Pestic Sci, 1999).

How the values were obtained:
[1] = Potency index, ratio of pI50 for simazine to pI50 for test compound against photosynthetic electron transport in Spinacia oleracea (spinach) thylakoids using oxygen electrode by Boger method
[2] = Inhibition of photosynthetic electron transport in Spinacia oleracea (spinach) thylakoids using oxygen electrode by Boger method

| SMILES | Ratio [1] | pI50 [2] |
| --- | --- | --- |
| Cc1nc(NCc2ccc([N+](=O)[O-])cc2)nc(C(F)(F)F)n1 | 10 | – |
| Cc1nc(NCc2ccc(C(F)(F)F)cc2)nc(C(F)(F)F)n1 | 10 | – |
| Cc1nc(NCc2ccc(Br)cc2)nc(C(F)(F)F)n1 | 10 | – |
| Cc1nc(NCc2ccccc2Cl)nc(C(F)(F)F)n1 | – | 5.95 |
| Cc1nc(NCc2ccc(Cl)cc2)nc(C(F)(F)F)n1 | 10 | 6.98 |
| Cc1nc(NCc2ccc(F)cc2)nc(C(F)(F)F)n1 | 10 | – |
